From patent publication US6362160B1, “Immunophilin-binding agents prevent glutamate neurotoxicity associated with vascular stroke and neurodegenerative diseases” (The Johns Hopkins University School of Medicine, priority 1993, dated 2002) come the findings set out here.

For assay [1], the system named is primary cerebral cortical neuronal cultures. In words: cells. In kind it is cell-based. As to the method:
Methods: Primary neuronal cultures from cortex were prepared from fetal Sprague-Dawley rats gestation day 13-14. After dissection, the cells were dissociated by trituration, counted, and plated in 15 mm multi-well (Nunc) plates coated with polyornithine at a density of 3-4×10^5 cells per well. Proliferation of non-neuronal cells was inhibited by applying 10 μg of 5-fluor-2′-deoxyuridine 4 days after plating for a total of 3 days. Neurons were maintained in modified Eagle's medium (MEM), 5% horse serum, 2 mM glutamine in 8% CO2, humidified at 37° C. Media was changed twice a week. Mature neurons (greater than 21 days in culture) were used in all experiments.
Neurotoxicity was determined by exposing the neurons to the various test solutions as previously described (Dawson, et al., Proc. Natl. Acad. Sci., USA, 88:6368-6371 (1991)). Prior to exposure, the cells were washed 3 times with a Tris-buffered control solution (CSS) containing 120 mM NaCl, 5.4 mM KCl, 1.8 mM CaCl2, 25 mM Tris-HCl, 15 mM glucose at pH 7.4. […] Rapamycin (RAPA) was applied 5 min. prior to and during the application of FK-506 and the excitatory amino acids. Following immunosuppressant drug pretreatment, NMDA and quisqualate were applied to the cells for 5 min., then the cells were washed with CSS and replaced with MEM, 21 mM glucose for 24 hr. in the incubator. Exposures to kainate were performed in MEM, 21 mM glucose for 24 hr. in the incubator. NMDA, quisqualate, and kainate were also applied to the neurons without immunosuppressant drug pretreatment. The effect of N-Arg (L-nitroarginine) on NMDA neurotoxicity was assessed as described (Dawson, et al., Proc. Natl. Acad. Sci., USA, 88:6368-6371 (1991)). Twenty to 24 hr. after exposure to test solutions, the neurons were exposed to 0.4% trypan blue in CSS to stain the residue of non-viable cells and to assess toxicity. Viable and non-viable cells were counted with approximately 500-1,500 cells counted per well. At least two separate experiments utilizing four separate wells were performed for each data point shown. A minimum of 4,000-12,000 neurons were counted for each data point. In some experiments photomicrographs were made before and after treatment using a transparent grid at the bottom of each culture plate. Viable and non-viable neurons in identical fields were counted by an observer blinded to study design and treatment protocol.

The test system of assay [2] is cGMP formation in primary neuronal cortical cultures. In words: cGMP levels in primary neuronal cortical cultures. In kind it is cell-based, rat. How it is done:
Methods: Primary neuronal cortical cultures were treated under identical conditions as those used for assessment of neurotoxicity except for the addition of 100 μM isobutylmethylxanthine (IBMX) to all wells to inhibit phosphodiesterases. […] Following ether extraction, cGMP was assayed utilizing an Amersham ^125 I-assay kit according to the manufacturer's instructions. Data represent the mean (±S.E.M.) of 6-12 wells (2-3 different plating of cultures) in duplicate. Statistical significance was determined by the Student's t-test, *p≦0.005.

For assay [3], the system named is NMDA elicited Ca2+ currents. Description: NMDA elicited Ca2+ currents in cortical cultures. The note with it: FK-506 500 nM (data not shown). In kind it is cell-based, rat.

For the compound `C=CC[C@@H]1/C=C(\C)C[C@H](C)C[C@H](OC)[C@H]2O[C@@](O)(C(=O)C(=O)N3CCCC[C@H]3C(=O)O[C@H](/C(C)=C/[C@@H]3CC[C@@H](O)[C@H](OC)C3)[C@H](C)[C@@H](O)CC1=O)[C@H](C)C[C@@H]2OC` [FK-506], the “% Cell Death (± S.E.M.)” value in assay [1] (100 μM Kainate + 500 nM FK-506) is recorded as 88.1 ± 3.8%; in assay [1] (500 μM Glutamate + 500 nM FK-506), “*40.6 ± 3.9%”; in assay [1] (500 μM NMDA + 500 pM FK-506) it was 78.3 ± 4.7%; in assay [1] (500 μM NMDA + 1 nM FK-506), 77.1 ± 4.0%; in assay [1] (500 μM NMDA + 10 nM FK-506), 68.5 ± 11.2%; in assay [1] (500 μM NMDA + 25 nM FK-506), “*67.2 ± 4.1%”. Besides, the “% Cell Death (± S.E.M.)” value was “*61.9 ± 5.8%” in assay [1] (500 μM NMDA + 50 nM FK-506); “*40.0 ± 9.1%” in assay [1] (500 μM NMDA + 100 nM FK-506); “**29.7 ± 5.8%” in assay [1] (500 μM NMDA + 500 nM FK-506); “**29.2 ± 4.1%” in assay [1] (500 μM NMDA + 1 μM FK-506); 90.5 ± 4.4% in assay [1] (500 μM Quisqualate + 500 nM FK-506). Also, the EC50 in assay [1] (Rattus norvegicus, applied 5 min prior to and during 5 min NMDA application, read-out: concentration at which 50% protection from NMDA neurotoxicity is evident) is 0.025 to 0.1 µM. In addition, the “lowest concentration providing significant protection from NMDA neurotoxicity” value in assay [1] (applied 5 min prior to and during 5 min NMDA application) stood at 25 nM. Further, the “% Basal cGMP Level (± S.E.M.)” value in assay [2] (300 μM SNP + 100 nM FK-506) is listed as 509.9 ± 63.4%; in assay [2] (500 μM NMDA + 100 nM FK-506) it was “*89.3 ± 25.4%”. The “reduction of the NMDA stimulation of cGMP levels” value in assay [2] (FK-506 100 nM) was “approximately 80%”. In addition, in assay [3], the “effect on NMDA elicited Ca2+ currents” value was “no effect”.
With `N[C@@H](CCC(=O)O)C(=O)O` [Glutamate], the “% Cell Death (± S.E.M.)” value in assay [1] (500 μM Glutamate alone) is on record as 76.0 ± 5.2%.
In the case of `C=C(C)[C@H]1CN[C@H](C(=O)O)[C@H]1CC(=O)O` [Kainate, kainate], the “% Cell Death (± S.E.M.)” value in assay [1] (100 μM Kainate alone, 24 hr exposure) was determined as 83.2 ± 6.3%. In addition, the “cell death elicited, compared with glutamate (500 μM)” value in assay [1] (kainate 100 μM) was “as much cell death as glutamate”.
For `CN[C@H](CC(=O)O)C(=O)O` [NMDA, N-methyl-D-aspartate], in assay [1] (500 μM NMDA alone, 5 min exposure, counted 20-24 hr later), the “% Cell Death (± S.E.M.)” value came to 82.8 ± 4.3%. For the same compound, the death of neurons entry in assay [1] (5 min exposure to NMDA, observed 24 hrs later) is given as “about 80%”. Also, in assay [2] (500 μM NMDA alone, 5 min, 100 μM IBMX), the “% Basal cGMP Level (± S.E.M.)” value is listed as 552.6 ± 95.6%.
Take `N[C@@H](Cn1oc(=O)[nH]c1=O)C(=O)O` [Quisqualate, quisqualate]: the “% Cell Death (± S.E.M.)” value in assay [1] (500 μM Quisqualate alone, 5 min exposure) turned out to be 85.9 ± 6.0%. The “cell death elicited, compared with glutamate (500 μM)” value in assay [1] (quisqualate 500 μM) was “as much cell death as glutamate”.
